{
  "source": "patent US9814727B2",
  "about": "“Piperazine phenothiazine derivatives for treating spasticity” (UNIVERSITE D'AIX-MARSEILLE, priority 2014, dated 2017)",
  "key": {"[1]": {"test_system": "paw withdrawal threshold", "experiment": "Von Frey test following spinal cord injury (mechanical hyperalgesia)", "type": "in vivo, rat", "details": "for effect on mechanical hyperalgesia (paw withdrawal threshold): 21 days after injury", "experimental": "Thoracic spinal unilateral hemisection in rats was used as a model of SCI. Adult female Wistar Rats (Charles River) were anaesthetized intraperitoneally with 50 mg/kg ketamine (Imalgen®, Merial, Duluth, Ga., USA) and 0.25 mg/kg Medetomidine (Domitor®, Janssen Pharmaceutica, Beerse, Belgium). The antibiotic Amoxycyline (Duphamox LA®, Pfizer, 150 mg/kg) was injected subcutaneously before the surgery. The skin was cut longitudinally over T8-T10 vertebra and a local anesthetic (2% Procaine hydrochloride, Pharmy H, Saint-Germain-en-Laye, France) was injected intramuscularly before cuting the paravertebral muscles. A laminectomy was performed at vertebral segment T9. The spinal cord was hemisected on the left side with microscissors at the level of the T8 spinal segment. Finally, paravertebral muscles and skin were sutured and rats were treated with buprenorphine for analgesia (1 injection before awakening from anaesthesia and 2 more injections over the next 24 h period). Aspirin was diluted in their water bottles for 3 days (aspegic, 200 mg in 150 ml). The rats weight, temperature and water intake were checked and their bladder was emptied manually twice a day until recovery of autonomy.\nAt day 21 post lesion, the rats were tested once with Von Frey hair and plantar test in order to have their baseline values. […] Then the effects of the drug was measured alternatively on mechanical and thermal hyperalgesia every 15 min, that is at […] after injection, respectively.\nThe plantar surface of the left, then right hind paws were probed using von Frey monofilaments £Bioseb, Paris, France) which apply different calibrated forces when they bent. The test started by applying a Von Frey hair of 8 g for 3 sec, and the 50% withdrawal thresholds of each hindlimb in response to tactile stimulation were measured using the up and down method (Chaplan et al., 1994)."}, "[2]": {"test_system": "KCC2", "experiment": "Western blot of KCC2 in total cell lysate of NSC-34 KCC2 cells", "type": "cell-based", "details": "10 μM, 30 min of cell treatment, NSC-34 KCC2 whole cell lysate", "experimental": "NSC-34 wild type and KCC2 were cultured in DMEM (Life technologies, Carlsbad, Calif., USA) supplemented with 10% FBS (Life technologies), 50 units/mL penicillin, and 50 µg/mL streptomycin (Life technologies).\nWild-type and KCC2-expressing HEK293 cells or NSC-34 were harvested and homogenised in lysis buffer (PBS containing 1% Igepal CA-630, 0.1% SDS, 10 mM sodium pyrophosphate, 10 mM NaF, 10 mM NaVO4, 10 mM iodoacetamide and cocktail protease inhibitors and centrifugated at 18000 g for 30 minutes at 4° C. Protein concentration in supernatants was determined using DC protein assay (Bio-rad). Same amounts of total proteins were separated in 6% or 7% SDS PAGE and transferred onto PVDF membrane. Once blocked in Tris Buffer Saline 0.05% Tween 5% non-fat dry milk, membranes were probes over night at 4° C. with KCC2 antibody (1/1000 dilution, Merck-Millipore, Billerica, Mass., USA), or anti-phospho-serine940 KCC2 (1/1000 dilution, PhosphoSolutions) or anti-Actin antibody (1/500 dilution, Sigma Aldrich). Anti-rabbit secondary antibody HRP conjugated was used for detection in chemiluminescent system (Thermo Scientific, Waltham, Mass., USA). Signal intensity was measured with the image analysis software Image lab (Bio-Rad, Hercules, Calif., USA). […]"}, "[3]": {"test_system": "KCC2", "experiment": "FluxOR fluorescence based thallium (Tl+) influx assay on KCC2-expressing HEK293 cells", "type": "cell-based", "details": "HEK KCC2 compared to WT HEK cells, non-cytotoxic dose range", "experimental": "Wild-type or KCC2-expressing Human Embryonic Kidney (HEK) 293 cells (provided by Prof. Eric Delpire Department of Anesthesiology, Vanderbilt University Medical Center, Nashville, Tenn.) were grown up to 80-90% confluence in DMEM/Ham's F-12 (1:1) (Life technologies, Carlsbad, Calif., USA) supplemented with 10% FBS (Life technologies), 50 units/mL penicillin, and 50 µg/mL streptomycin (Life technologies). KCC2-expressing clones were under puromycin selection (20 μg/ml, Life technologies).\nThe FluxOR™ potassium ion channel assay (Life Technologies Carlsbad, Calif., USA) was performed as outlined in the product information sheet and an earlier published study (Delpire et al., 2009, Proc. Natl. Acad. Sci. USA, 106, 5383-88) to assess KCC2 activity, and adapted to semi-automated high throughput screening. The experiment was performed in the presence of ouabain 200 μM and bumetanide 10 μM in all buffers to block the Na^+/K^+ pump and NKCC1 cotransporters, respectively. Briefly, cells in suspension were incubated in the loading buffer containing the dye at room temperature for 90 min (1/2000 dilution of FluxOR reagent) at the density of 100.000 cells/75 μl, then centrifugated and resuspended in Assay buffer at the same cell density. A number of 100.000 cells (75 μl) were manually handled in each well to the 96-wells black-walled, μclear-bottom plates (Greiner Bio-One, Monroe, N.C., USA) and 5 μl of chemical compounds 1-8 at different concentrations in PBS 1% DMSO (5, 30 and 50 μM) were added to the plates using the Biomek® NX Laboratory automation workstation (Beckman Coulter, Villepinte, France). After 15 minutes incubation, baseline fluorescent signal was measured with the Polarstar omega microplate reader (490 nm excitation and 520 nm emission, BMG Labtech). Then 20 μL per well of 5× thallium stimulus buffer (final concentrations: Tl^+: 2 mM, K^+: 10 mM) was injected and fluorescent signal was read 30 minutes later.\nFor each plate, 2 columns were dedicated to controls (cell density range from 0.25 to 1.10^5 cells; loading buffer as blank; untreated or treated with NEM (33 μM, for 15 min) wild-type and KCC2-expressing HEK293 cells).\nBaseline fluorescent value was subtracted from the fluorescent value measured 30 min after stimulus buffer injection for each well, and this difference was normalized to the number of cells. […] Values converted to percentages such that the maximum of ratio is 100%."}},
  "data": [
    {"smiles": "CN1CCN(CCCN2c3ccccc3Sc3ccc(Cl)cc32)CC1", "note": "[compound 2, 2-chloro-10-[3-(4-methyl-1-piperazinyl)propyl]-10H-phenothiazine]", "values": [
      {"measurement": "time after injection at which effects were significant", "setting": "[1]; i.p. or i.v., Von Frey test", "value": 40, "unit": "min"},
      {"measurement": "effect on mechanical hyperalgesia (paw withdrawal threshold)", "setting": "[1]; intraperitoneally 2 mg/kg", "value": "temporarily reduces mechanical hyperalgesia"},
      {"measurement": "effect on mechanical hyperalgesia (paw withdrawal threshold)", "setting": "[1]; intravenously 50 ng/kg", "value": "temporarily reduces mechanical hyperalgesia"},
      {"measurement": "phosphorylated KCC2 on serine 940", "setting": "[2]", "value": "increased"},
      {"measurement": "total KCC2 protein level (monomers+oligomers)", "setting": "[2]", "value": "increased"},
      {"measurement": "specific activation of KCC2 across a dose range", "setting": "[3]", "value": "activate specifically KCC2 in a dose dependant manner"}
    ]}
  ]
}
